Where two headings read alike, the source gives them in different places.
Biological target: T1, human CB2R (Homo sapiens, UniProt P34972)
T1 construct: host or cells: CHO cells
Test: CB2R mediated modulation of cAMP synthesis
Assay type: cell-based
Settings: for agonistic activity: found through the use of the above described assays
How it was run: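 CHO cells expressing human CB2R were treated with compound for 30 min at 37 °C in buffer containing 1 mM IBMX, 0.25% BSA and 10 uM forskolin. cAMP was measured after lysis. EC50 was taken as 50% inhibition of forskolin-stimulated cAMP, with 100% defined by 1 uM CP55940, using a four-parameter logistic fit.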

T1 sequence (P34972 whole entry): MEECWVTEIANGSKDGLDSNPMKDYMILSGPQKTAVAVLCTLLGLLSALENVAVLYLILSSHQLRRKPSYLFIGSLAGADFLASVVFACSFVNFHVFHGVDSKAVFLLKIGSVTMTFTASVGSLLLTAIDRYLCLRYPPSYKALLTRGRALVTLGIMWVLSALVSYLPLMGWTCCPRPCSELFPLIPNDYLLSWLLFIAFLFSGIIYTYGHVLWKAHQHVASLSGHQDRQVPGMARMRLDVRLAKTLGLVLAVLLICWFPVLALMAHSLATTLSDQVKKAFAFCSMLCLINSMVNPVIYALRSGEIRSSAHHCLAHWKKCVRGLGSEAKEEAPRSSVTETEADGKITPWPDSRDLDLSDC

Structure (SMILES)	EC50 [nM]	agonistic activity	EC50 (CHO cells expressing human CB2R, inhibition of forskolin-stimulated cAMP synthesis, compounds having agonist activity, read-out: CB2 EC50) [nM]
CC(C)(C)c1cc(NC(=O)C(C)(C)S(=O)(=O)CC2CCN(S(C)(=O)=O)C2)no1 (stereo not drawn) [N-(5-tert-Butyl-isoxazol-3-yl)-2-(1-methanesulfonyl-pyrrolidin-3-ylmethanesulfonyl)-2-methyl-propionamide]	44.1	agonistic activity	–
CC(C)(C)C(=O)CS(=O)(=O)C(C)(C)C(=O)Nc1cc(C(C)(C)C)on1 [N-(5-tert-Butyl-isoxazol-3-yl)-2-(3,3-dimethyl-2-oxo-butane-1-sulfonyl)-2-methyl-propionamide]	39.8	agonistic activity	–
CC(C)(C)c1cc(NC(=O)C(C)(C)S(=O)(=O)Cc2ccc(Cl)cc2)no1 [N-(5-tert-Butyl-isoxazol-3-yl)-2-(4-chloro-phenylmethanesulfonyl)-2-methyl-propionamide]	16.6	agonistic activity	–
CC(C)(C)c1cc(NC(=O)C(C)(C)S(=O)(=O)CC#N)no1 [N-(5-tert-Butyl-isoxazol-3-yl)-2-cyanomethanesulfonyl-2-methyl-propionamide]	–	agonistic activity	–
CC(C)(C)c1cc(NC(=O)C(C)(C)S(=O)(=O)CC2CCC2)no1 [N-(5-tert-Butyl-isoxazol-3-yl)-2-cyclobutylmethanesulfonyl-2-methyl-propionamide]	3.4	agonistic activity	–
CC(C)(C)c1cc(NC(=O)C(C)(C)S(=O)(=O)C2CCCCCC2)no1 [N-(5-tert-Butyl-isoxazol-3-yl)-2-cycloheptanesulfonyl-2-methyl-propionamide]	0.1	agonistic activity	–
CC(C)(C)c1cc(NC(=O)C(C)(C)S(=O)(=O)C2CCCCC2)no1 [N-(5-tert-Butyl-isoxazol-3-yl)-2-cyclohexanesulfonyl-2-methyl-propionamide]	0.2	agonistic activity	–
CC(C)(C)c1cc(NC(=O)C(C)(C)S(=O)(=O)CC2CCCCC2)no1 [N-(5-tert-Butyl-isoxazol-3-yl)-2-cyclohexylmethanesulfonyl-2-methyl-propionamide]	0.6	agonistic activity	–
CC(C)(C)c1cc(NC(=O)C(C)(C)S(=O)(=O)C2CCCC2)no1 [N-(5-tert-Butyl-isoxazol-3-yl)-2-cyclopentanesulfonyl-2-methyl-propionamide]	2.4	agonistic activity	–
CC(C)(C)c1cc(NC(=O)C(C)(C)S(=O)(=O)C2CC2)no1 [N-(5-tert-Butyl-isoxazol-3-yl)-2-cyclopropanesulfonyl-2-methyl-propionamide]	–	agonistic activity	–
CC(C)(C)c1cc(NC(=O)C(C)(C)S(=O)(=O)CC2CC2)no1 [N-(5-tert-Butyl-isoxazol-3-yl)-2-cyclopropylmethanesulfonyl-2-methyl-propionamide]	34.3	agonistic activity	–
CCS(=O)(=O)C(C)(C)C(=O)Nc1cc(C(C)(C)C)on1 [N-(5-tert-Butyl-isoxazol-3-yl)-2-ethanesulfonyl-2-methyl-propionamide]	–	agonistic activity	–
CC(C)(C)c1cc(NC(=O)C(C)(C)S(C)(=O)=O)no1 [N-(5-tert-Butyl-isoxazol-3-yl)-2-methanesulfonyl-2-methyl-propionamide]	–	agonistic activity	–
CC(C)(C)c1cc(NC(=O)C(C)(C)S(=O)(=O)CC(F)(F)F)no1 [N-(5-tert-Butyl-isoxazol-3-yl)-2-methyl-2-(2,2,2-trifluoro-ethanesulfonyl)-propionamide]	–	agonistic activity	–
CC(C)CS(=O)(=O)C(C)(C)C(=O)Nc1cc(C(C)(C)C)on1 [N-(5-tert-Butyl-isoxazol-3-yl)-2-methyl-2-(2-methyl-propane-1-sulfonyl)-propionamide]	44.6	agonistic activity	–
CC(C)(C)c1cc(NC(=O)C(C)(C)S(=O)(=O)C(C)(C)C)no1 [N-(5-tert-Butyl-isoxazol-3-yl)-2-methyl-2-(2-methyl-propane-2-sulfonyl)-propionamide]	–	agonistic activity	–
CC(C)CCS(=O)(=O)C(C)(C)C(=O)Nc1cc(C(C)(C)C)on1 [N-(5-tert-Butyl-isoxazol-3-yl)-2-methyl-2-(3-methyl-butane-1-sulfonyl)-propionamide]	0.2	agonistic activity	–
CC(C)(C)c1cc(NC(=O)C(C)(C)S(=O)(=O)CCCc2ccccc2)no1 [N-(5-tert-Butyl-isoxazol-3-yl)-2-methyl-2-(3-phenyl-propane-1-sulfonyl)-propionamide]	–	agonistic activity	–
CC(C)(C)c1cc(NC(=O)C(C)(C)S(=O)(=O)C2(C)CCOCC2)no1 [N-(5-tert-Butyl-isoxazol-3-yl)-2-methyl-2-(4-methyl-tetrahydro-pyran-4-sulfonyl)-propionamide]	9.4	agonistic activity	–

Structure (SMILES)	EC50 [nM]	agonistic activity	EC50 (CHO cells expressing human CB2R, inhibition of forskolin-stimulated cAMP synthesis, compounds having agonist activity, read-out: CB2 EC50) [nM]
CC(C)(C)c1cc(NC(=O)C(C)(C)S(=O)(=O)CC2CCNCC2)no1 [N-(5-tert-Butyl-isoxazol-3-yl)-2-methyl-2-(piperidin-4-ylmethanesulfonyl)-propionamide]	–	agonistic activity	–
CCCS(=O)(=O)C(C)(C)C(=O)Nc1cc(C(C)(C)C)on1 [N-(5-tert-Butyl-isoxazol-3-yl)-2-methyl-2-(propane-1-sulfonyl)-propionamide]	61.9	agonistic activity	–
CC(C)S(=O)(=O)C(C)(C)C(=O)Nc1cc(C(C)(C)C)on1 [N-(5-tert-Butyl-isoxazol-3-yl)-2-methyl-2-(propane-2-sulfonyl)-propionamide]	–	agonistic activity	–
CC(C)(C)c1cc(NC(=O)C(C)(C)S(=O)(=O)CC2CCCO2)no1 (stereo not drawn) [N-(5-tert-Butyl-isoxazol-3-yl)-2-methyl-2-(tetrahydro-furan-2-ylmethanesulfonyl)-propionamide]	70.5	agonistic activity	–
CC(C)(C)c1cc(NC(=O)C(C)(C)S(=O)(=O)CC2CCCCO2)no1 (stereo not drawn) [N-(5-tert-Butyl-isoxazol-3-yl)-2-methyl-2-(tetrahydro-pyran-2-ylmethanesulfonyl)-propionamide]	0.2	agonistic activity	–
CC(C)(C)c1cc(NC(=O)C(C)(C)S(=O)(=O)C2CCOCC2)no1 [N-(5-tert-Butyl-isoxazol-3-yl)-2-methyl-2-(tetrahydro-pyran-4-sulfonyl)-propionamide]	–	agonistic activity	0.7
CC(C)(C)c1cc(NC(=O)C(C)(C)S(=O)(=O)CC2CCOCC2)no1 [N-(5-tert-Butyl-isoxazol-3-yl)-2-methyl-2-(tetrahydro-pyran-4-ylmethanesulfonyl)-propionamide]	–	agonistic activity	–
CC(C)C(C(=O)Nc1cc(C(C)(C)C)on1)S(=O)(=O)C(C)C (stereo not drawn) [N-(5-tert-Butyl-isoxazol-3-yl)-3-methyl-2-(propane-2-sulfonyl)-butyramide]	–	agonistic activity	–
CC(C)(C(=O)Nc1nc2ccccc2o1)S(=O)(=O)CC1CCOCC1 [N-Benzooxazol-2-yl-2-methyl-2-(tetrahydro-pyran-4-ylmethanesulfonyl)-propionamide]	–	agonistic activity	–
CCCS(=O)(=O)C(C)(C)C(=O)Nc1nc2ccccc2s1 [N-Benzothiazol-2-yl-2-methyl-2-(propane-1-sulfonyl)-propionamide]	–	agonistic activity	–
CC(C)S(=O)(=O)C(C)(C)C(=O)Nc1nc2ccccc2s1 [N-Benzothiazol-2-yl-2-methyl-2-(propane-2-sulfonyl)-propionamide]	–	agonistic activity	–
CC(C)(C(=O)Nc1nc2ccccc2s1)S(=O)(=O)CC1CCOCC1 [N-Benzothiazol-2-yl-2-methyl-2-(tetrahydro-pyran-4-ylmethanesulfonyl)-propionamide]	27.9	agonistic activity	–
CC(C)S(=O)(=O)C(C)(C)C(=O)Nc1cc2ccccc2cn1 [N-Isoquinolin-3-yl-2-methyl-2-(propane-2-sulfonyl)-propionamide]	–	agonistic activity	–
CC(C)(C(=O)Nc1cc2ccccc2cn1)S(=O)(=O)CC1CCOCC1 [N-Isoquinolin-3-yl-2-methyl-2-(tetrahydro-pyran-4-ylmethanesulfonyl)-propionamide]	99.1	agonistic activity	–
CCCS(=O)(=O)C(C)(C)C(=O)Nc1cc(CC(C)(C)C)no1 [N-[3-(2,2-Dimethyl-propyl)-isoxazol-5-yl]-2-methyl-2-(propane-1-sulfonyl)-propionamide]	–	agonistic activity	–
CC(C)(C)Cc1cc(NC(=O)C(C)(C)S(=O)(=O)CC2CCOCC2)on1 [N-[3-(2,2-Dimethyl-propyl)-isoxazol-5-yl]-2-methyl-2-(tetrahydro-pyran-4-ylmethanesulfonyl)-propionamide]	74.3	agonistic activity	–
CC(C)(C(=O)Nc1nc(-c2ccc(Cl)cc2)cs1)S(=O)(=O)C1CCCC1 [N-[4-(4-Chloro-phenyl)-thiazol-2-yl]-2-cyclopentanesulfonyl-2-methyl-propionamide]	1.5	agonistic activity	–
CCCS(=O)(=O)C(C)(C)C(=O)Nc1nc(-c2ccc(Cl)cc2)cs1 [N-[4-(4-Chloro-phenyl)-thiazol-2-yl]-2-methyl-2-(propane-1-sulfonyl)-propionamide]	13	agonistic activity	–
CC(C)S(=O)(=O)C(C)(C)C(=O)Nc1nc(-c2ccc(Cl)cc2)cs1 [N-[4-(4-Chloro-phenyl)-thiazol-2-yl]-2-methyl-2-(propane-2-sulfonyl)-propionamide]	44.9	agonistic activity	–

From patent publication US8829034B2, “Compounds which modulate the CB2 receptor” (Boehringer Ingerlheim International GmbH, priority 2006, dated 2014)
